In one test the test system is E. faecalis. As to the kind of experiment: Bacterial colonization of the nematode intestine (CFU per worm). Type of test: in vivo, Enterococcus faecalis. To be noted: 100% = 3.28 × 10^4 CFU/worm. On the procedure:
Infected worms were washed three times with M9 buffer containing 1 mM sodium azide. Approximately 10 worms were transferred to a 2 ml microcentrifuge tube and the volume was brought to 250 μl. Fifty μl of buffer was removed and plated to determine the number of external CFU.

Test [1] relates to E. faecalis strain MMH594. Nature of the test: MIC, 2-fold broth microdilution in BHI media (NCCLS). Type of test: cell-based, Enterococcus faecalis. To be noted: Enterococcus faecalis, E30 value is at its aqueous solubility limit, read-out: MIC. On the procedure: Worm survival was scored manually after 6 days of incubation. […] MICs were determined against E. faecalis strain MMH594 using 2-fold dilution in BHI media according to the broth microdilution protocol of the NCCLS (CLSI) (National Committee for Clinical Laboratory Standards, Approved Standard M7-A5; Methods for Dilution Antimicrobial Susceptibility Tests for Bacteria that Grow Aerobically, Villanova, Pa.: NCCLS (2000)).

For a further test, the system named is C. albicans strain MLR62. As to the kind of experiment: C. elegans-Candida killing assay, compound library screen in 96-well plates. Type of test: in vivo, Candida albicans. To be noted: for Killing: glp-4, sek-1 nematodes, day 6, compound 33.33 μg/ml, 13.33 μg/ml, or 6.67 mM depending on library. As for the experimental part: For testing the efficacy of chemical compounds, C. albicans strain MLR62 was inoculated into 2 ml of YPD and grown at 30° C. for 24 hours; 10 μl of the culture was spread on 35-mm tissue-culture plates (Falcon) containing brain heart infusion (BHI) agar (Difco) with kanamycin (45 μg/ml), ampicillin (100 μg/ml), and streptomycin (100 μg/ml). The plates were incubated at 30° C. for 24 hours. C. elegans animals at the L4 developmental stage (grown as detailed above under C. elegans liquid medium killing assays) were transferred from a lawn of E. coli HB101 onto C. albicans lawns on BHI medium, incubated at 25° C. for 30 minutes, and then pipetted in 50 μl into 96-well plate wells that contained 100 μl liquid media (79% of M9 buffer, 20% BHI media, 2 μM cholesterol and 90 μg/ml kanamycin). C. elegans glp-4; sek-1 nematodes were pipetted into 96-well plates that contained compounds from chemical libraries. Library 1361 was assembled by Biomol and contains well-characterized compounds that affect many different aspects of cellular pathways. The NINDS custom collection (plates 501-503) was put together by MicroSource Discovery Systems for the National Institute of Neurological Disorders and Stroke (NINDS), the Huntington's Disease Society of America (HDSA), the Amyotrophic Lateral Sclerosis (ALS) Association, and the Hereditary Disease Foundation (HDF). It mostly contains FDA approved drugs. The Prestwick library (plate 1569) contains compounds that are known to be safe and bioactive in humans. The majority of the compounds are marketed drugs.
On day 6, nematodes were evaluated for survival, filament formation and optical density. The plates were incubated at 25° C. and examined on day 6 for survival with a Nikon SMZ645 dissecting microscope. In addition, images were obtained using a CellWorx High Content Cell Analysis System (Applied Precision) at 4× magnification. Dead worms were counted but not removed. […] Each compound was also scored by the number of dead worms in the well that developed hyphea. […] Compounds were categorized as having a minimal effect on filament formation if 25-75% of the dead worms developed hyphea.
Approximately 25 nematodes were used to analyze each chemical compound tested. Two controls were used in all plates. […] In this pilot screen, we considered a compound as a “hit” when survival in the compound well with was 50% and above of the median survival of the control wells. Depending on the compound library, the final concentration of the compounds was 33.33 μg/ml, 13.33 μg/ml, or […].

Values after ≈ are worked out from the molar mass of the structure shown. Residues, ends and D or L forms follow the SMILES beside them. *: point of attachment. CH2Cl = ClC*

What is called MIC is the lowest concentration that inhibits growth of the organism. For the compound `O=[N+]([O-])c1cc(O)ccc1/C=N/Nc1nc(NCc2ccccc2)nc(N2CCOCC2)n1` [Compound O1], the “Amt. Colonization vs untreated” value with E. faecalis is given as 8%. Further, in test [1], the MIC was found to be 15.6 mg/L (≈ 34.6 µM).

In the test with C. albicans strain MLR62, `C[C@H](N)C(=O)N[C@@H](C)C(=O)N[C@@H](Cc1ccccc1)C(=O)CCl` [ALA-ALA-PHE-CMK] (H-Ala-Ala-Phe-CH2Cl) came in with a Killing of 0.448.

`O=C(CCN1C(=O)/C(=C2/SC(=S)N(CCC(=O)Nc3ccccc3C(=O)O)C2=O)SC1=S)Nc1ccccc1C(=O)O` [Compound F1]: the “Amt. Colonization vs untreated” value with E. faecalis turned out to be 3%. Also, in test [1], the MIC is over 125 mg/L.

`O=C(NC(NC(=S)Nc1ccc([N+](=O)[O-])cc1)C(Cl)(Cl)Cl)c1cccc([N+](=O)[O-])c1` (stereo not drawn) [Compound E1]: in the test with E. faecalis, the “Amt. Colonization vs untreated” value is on record as 1%. Besides, in test [1], the MIC worked out at 31.3 mg/L (≈ 63.5 µM).

Regarding `CCCCCCCCCCCCCCC[C@H](O)[C@@H](N)CO` (racemic) [DL-Dihydrosphingosine], in the test with C. albicans strain MLR62, the Killing worked out at 0.485.

Turning to `O=c1[nH]c2ccc(/N=C/c3cc(I)cc(I)c3O)cc2[nH]1` [Compound H1], in the test on E. faecalis, the “Amt. Colonization vs untreated” value was 1%. Further, the MIC in test [1] is 15.6 mg/L (≈ 30.9 µM).

The compound `Clc1ccc2ncnc(NCc3ccc4c(c3)OCO4)c2c1` [MBCQ] registered a Killing with C. albicans strain MLR62 of 0.32.

In turn, Eicosatrienoic acid (20:3 n-3) displayed a Killing with C. albicans strain MLR62 of 0.333.

For Ikarugamycin, the Killing with C. albicans strain MLR62 stood at 0.429.

Take `COc1ccc(/C=C/C2=CCN(Cc3ccccc3)CC2)cc1` [Compound K1]: the “Amt. Colonization vs untreated” value in the test on E. faecalis is recorded as 61%. Moreover, the MIC in test [1] is over 125 mg/L.

With `C[N+]1(CCCCC[N+]2(C)CCCC2)CCCC1.O=C([O-])C(O)C(O)C(=O)O.O=C([O-])C(O)C(O)C(=O)O` [Pentolinium bitartrate], in the test with C. albicans strain MLR62, the Killing was found to be 0.227.

The compound Hydrocortisone hemisuccinate gave a Killing in the test on C. albicans strain MLR62 of 0.300.

`CCCCC/C=C\C[C@@H](O)/C=C/C=C/C=C\[C@@H](O)CCCC(=O)O` [Leukotriene B4] had a Killing with C. albicans strain MLR62 of 0.483.

`CCCCCCCCCCC/C=C\C(C)(C)/C=C\CCCC(=O)O` [7,7-Dimethyleicosadienoic acid] had a Killing with C. albicans strain MLR62 of 0.304.

Compound `C=C1[C@@H](C)[C@H]2[C@H](Cc3ccccc3)NC(=O)[C@]23OC(=O)/C=C/[C@H](O)CCC[C@@H](C)C/C=C/[C@H]3[C@@H]1O` [Cytochalasin B] displayed a Killing with C. albicans strain MLR62 of 0.438.

Regarding `CCCCC[C@H](O)/C=C/C=C\C=C\C=C\[C@@H](O)[C@@H](O)CCCC(=O)O` [Lipoxin A4], in the test with C. albicans strain MLR62, the Killing is on record as 0.273.

Hydroxytacrine maleate registered a Killing in the test with C. albicans strain MLR62 of 0.467.

Regarding `CO/C1=C\C(C)=C\[C@@H](C)[C@@H](O)[C@@H](C)C/C(C)=C/C=C/[C@H](OC)[C@@H]([C@@H](C)[C@@H](O)[C@H](C)[C@@]2(O)C[C@@H](O)[C@H](C)[C@@H](C(C)C)O2)OC1=O` [Bafilomycin A1], the Killing with C. albicans strain MLR62 is 0.333.

For `c1ccc(-c2ccc(CN3CCN(c4ccccn4)CC3)cc2)cc1` [Compound L1], in the test on E. faecalis, the “Amt. Colonization vs untreated” value is 101%. Further, the MIC in test [1] is over 125 mg/L.

On to `CCCCC(C)(O)C/C=C/[C@H]1[C@H](O)CC(=O)[C@@H]1CCCCCCC(=O)O` (mixture of isomers) [Misoprostol, free acid], for which the Killing in the test on C. albicans strain MLR62 is 0.464.

Turning to `O=C(/C=C/c1ccc(O)c(O)c1)OCCc1ccccc1` [Caffeic acid phenethyl ester], the “fluorescence within the nematode intestine (GFP-expressing C. albicans)” value in the test on C. albicans strain MLR62 (FIG. 18A) is given as “no fluorescence within the intestine”.

For `N#CC(=Cc1ccc2[nH]ccc2c1)C(N)=C(C#N)C#N` [AG-370], in the test with C. albicans strain MLR62, the Killing was determined as 0.111.

Regarding `O=C1c2ccccc2-c2ncnc3ccc(NC4CCCCC4)c1c23` [Compound J1], the “Amt. Colonization vs untreated” value in the test on E. faecalis worked out at 11%. Also, the MIC in test [1] was determined as 2 mg/L (≈ 6.07 µM).

Compound `Cc1n[nH]c(=O)[nH]c1=O` [Azathymine, 6] came in with a Killing with C. albicans strain MLR62 of 0.480.

As for `N#C/C(=C/c1ccc(O)c(O)c1)C(=O)NCc1ccccc1` [AG-490], the Killing with C. albicans strain MLR62 was 0.462.

Compound Docosatrienoic acid (22:3 n-3) displayed a Killing with C. albicans strain MLR62 of 0.439.

As to `CCCCC[C@@H](/C=C/C=C\C/C=C\C/C=C\CCCC(=O)O)OO` [15 (S) HPETE], the Killing in the test with C. albicans strain MLR62 is on record as 0.412.

For `N#Cc1cc2c(OCC(O)CN3CCN(C(c4ccccc4)c4ccccc4)CC3)cccc2[nH]1` (stereo not drawn) [SDZ-201106], in the test with C. albicans strain MLR62, the Killing is reported as 0.432.

In the test with C. albicans strain MLR62, `CC(=O)[C@H]1CC[C@H]2[C@@H]3CC=C4C[C@@H](OS(=O)(=O)[O-])CC[C@]4(C)[C@H]3CC[C@]12C.[Na+]` [Pregnenolone sulfate, sodium salt] displayed a Killing of 0.438.

As for `CC(Oc1cccc(Cl)c1)C(=O)N/N=C/c1cc([N+](=O)[O-])ccc1O` (stereo not drawn) [Compound N1], in the test with E. faecalis, the “Amt. Colonization vs untreated” value is listed as 5%. For the same compound, the MIC in test [1] was determined as 3.9 mg/L (≈ 10.7 µM).

Consider `CC/C=C\C/C=C\C/C=C\C/C=C\C/C=C\CCCC(=O)O` [Eicosapentaenoic acid (20:5 n-3)], for which the Killing with C. albicans strain MLR62 worked out at 0.448.

Take `CCCCC/C=C\C/C=C\C/C=C\C=C\[C@H](CCCC(=O)O)OO` [5 (S) HPETE]: the Killing in the test on C. albicans strain MLR62 is 0.261.

`COc1cc2ncnc(Nc3cccc(Cl)c3)c2cc1OC` [AG-1478] had a Killing in the test on C. albicans strain MLR62 of 0.3.

The compound `COC(=O)c1c(C)[nH]c(C)c1C(=O)c1ccccc1Cc1ccccc1` [FPL-64176] registered a Killing in the test with C. albicans strain MLR62 of 0.429.

As for `CC(=O)N[C@@H](CSC/C=C(\C)CC/C=C(\C)CCC=C(C)C)C(=O)O` [Acetyl (N) s farnesyl 1 cys], in the test on C. albicans strain MLR62, the Killing came to 0.4.

As for `CC1(C)C(C=C(Cl)Cl)C1C(=O)NCCCOC(=O)Nc1ccc(Cl)cc1` (stereo not drawn) [Compound M1], the “Amt. Colonization vs untreated” value in the test with E. faecalis is listed as 8%. Besides, the MIC in test [1] was over 125 mg/L.

These data come from patent US20170020900A1, “METHODS FOR SCREENING ANTIMICROBIAL AND ANTIVIRAL COMPOUNDS AND USES THEREOF” (The General Hospital Corporation, priority 2006, published 2017).
